US5179120A, “Porphycene compounds for photodynamic therapy” (Cytopharm, Inc., priority 1991, dated 1993)

Tests used:
[1] = Solubility of the title compound in selected solvents; assay type: physicochemical
Source text: Solubility of the title compound in selected solvents: […]

[2] = Stability towards oxygen and light (observation during preparation); assay type: physicochemical; conditions: traces of oxygen in the presence of light
Method: At room temperature while stirring in the dark, 243 mg (248 μL, 1.6 mmol) DBU were added all at once to a solution of 14.8 mg (20 μmol) tetrakis(bromoethyl)porphycene in 50 mL of absolute THF. After thirty minutes, the agitator was turned off and the mixture left to stand at room temperature for two days. Subsequently the greenish-blue solution was treated with 80 mL of CH2 Cl2 and poured into 80 mL of 0.5% HCl. The organic phase was shaken out and washed with water and a 2% NaHCO3 solution, dried over Na2 SO4 and the solvent was evaporated under vacuum. The residue was chromatographed with CH2 Cl2 on aluminum oxide (Brockmann, II-III activity stage, column 2×10 cm) and the first green fraction was collected. The solvent was slowly evaporated under a slight vacuum and the remaining fine crystalline solid was washed with 3 mL of ice cooled, absolute pentane. Following drying under a high vacuum, 4.1 mg (10 μmol) tetravinylporphycene were obtained. […] The yield was 50%.
All reagents and solvents were purged of oxygen by introducing inert gas and all purification steps were carried out under subdued light, as was the reaction.

SMILES	Solubility of the title compound in selected solvents ([1]; CH2 Cl2)	Solubility of the title compound in selected solvents ([1]; CHCl3)	Solubility of the title compound in selected solvents ([1]; DEET)	Solubility of the title compound in selected solvents ([1]; DMF)	Solubility of the title compound in selected solvents ([1]; DMSO)	Solubility of the title compound in selected solvents ([1]; EtOH)	Solubility of the title compound in selected solvents ([1]; MeOH)	Solubility of the title compound in selected solvents ([1]; THF)	Solubility of the title compound in selected solvents ([1]; Toluene)	Solubility of the title compound in selected solvents ([1]; acetone)	Solubility of the title compound in selected solvents ([1]; ethyl acetate)	Solubility of the title compound in selected solvents ([1]; hexane)	Solubility of the title compound in selected solvents ([1]; i-propanol)	Solubility of the title compound in selected solvents ([1]; water)	Stability (decomposition) [2]
COCCC1=Cc2nc1ccc1[nH]c(cc1CCOC)c1nc(c(OC(C)=O)cc3[nH]c2cc3CCOC)C(CCOC)=C1 [9-Acetoxy-2,7,12,17-tetrakis(methoxyethyl)porphycene]	Excellent	Excellent	Good	Good	Good	Moderate	Moderate	Excellent	Good	Good	Excellent	Insoluble	Moderate	Insoluble	–
C=CC1=Cc2nc1ccc1[nH]c(cc1C=C)c1nc(ccc3[nH]c2cc3C=C)C(C=C)=C1 [2,7,12,17-Tetravinylporphycene]	–	–	–	–	–	–	–	–	–	–	–	–	–	–	decomposed even with traces of oxygen in the presence of light
